Structures can show the parent of a compound that is named as a salt.
Molecular target: T1, Mouse VCP (Mus musculus, UniProt Q01853)
T1 construct: histidine tag (N); made in house; host or cells: Sf-9 insect cells (baculovirus vector pVL1392)
Assay: ATPase activity of purified His-tagged VCP, [γ-32P]ATP, liberated phosphate by liquid scintillation
Type: biochemical
Settings: compounds of Examples; ATPase inhibitory activity; 500 ng VCP, 100 μM ATP, 37° C., 10 minutes
Protocol: In one aspect, the effect of VCP regulators for regulating ATPase activity is determined, for example by the following exemplary assay. Mouse VCP cDNA (the amino acid sequence is completely identical among mouse, rat and human) is added with a DNA sequence corresponding to a histidine tag at the amino-terminal, subcloned into a baculovirus vector pVL1392 (BD Bioscience), and expressed in Sf-9 insect cells. The protein is purified with a nickel column. After the purification the concentration of the protein is adjusted to 0.25-0.5 μg/ml and the protein is stored in a solution containing 50 mM TrisCl pH 8.0, 5 mM EDTA, 10% glycerol, and 15 mM DTT at 4° C. 500 ng of the purified VCP is mixed with 100 μM [γ-^32P]ATP (18.5 GBq/mmol) and the test substance in 20 μL of ATPase buffer (20 mM HEPES (pH7.4), 50 mM KCl, 5 mM MgCl2, 15 mM DTT), and incubated at 37° C. for 10 minutes. The enzyme reaction is stopped with addition of 200 μL of an ice-cold solution containing 7% TCA and 1 mM K2HPO4. 50μ of a solution containing 3.75% ammonium molybdate and 0.02M tungstate silicic/3 N H2SO4 is added, followed by 300 μL of n-butylacetic acid, and then the liberated phosphate is extracted into the organic layer. The reaction tube is centrifuged for 5 minutes at 20,000 g to separate the aqueous layer and the organic layer, 200 μL of the organic layer is taken, and the beta ray radiated from the liberated phosphate is quantified with liquid scintillation counter. By measuring the ATPase activity in the presence of the test substance at various concentrations, ATPase inhibitory activity of the test substance is measured.
Mouse VCP cDNA was added with a DNA sequence corresponding to histidine tag at the amino-terminal, subcloned into a baculovirus vector pVL1392 (BD Bioscience), and expressed in Sf-9 insect cells. The protein was purified with a nickel column (GE Healthcare). The concentration of the protein was adjusted to 0.25-0.5 μg/ml and the protein was stored in a solution containing 50 mM TrisCl pH 8.0, 5 mM EDTA, 10% glycerol, and 15 mM DTT.
The ATPase activity was determined as follows. 500 ng of the purified VCP was mixed with 100 μM [γ-32P]ATP (18.5 GBq/mmol) and the test substance in 20 μL of ATPase buffer (20 mM HEPES (pH7.4), 50 mM KCl, 5 mM MgCl2, 15 mM DTT), and incubated at 37° C. for 10 minutes.
The enzyme reaction was stopped with addition of 200 μL of an ice-cold solution containing 7% TCA and 1 mM K2HPO4. 50μ of a solution containing 3.75% ammonium molybdate and 0.02M tungstate silicic/3 NH2SO4 was added, followed by 300 μL of n-butylacetic acid, and then the liberated phosphate was extracted into the organic layer. The reaction tube was centrifuged for 5 minutes at 20,000 g to separate the aqueous layer and the organic layer, 200 μL of the organic layer was taken, and the beta ray radiated from the liberated phosphate was quantified with liquid scintillation counter.
By measuring the ATPase activity in the presence of the test substance at various concentrations, ATPase inhibitory activity of the test substance was measured. IC50 of the each test substance was calculated by applying the measured values to the equation below using GraphPad Prism (GraphPad Software).

T1 sequence (Q01853 whole entry): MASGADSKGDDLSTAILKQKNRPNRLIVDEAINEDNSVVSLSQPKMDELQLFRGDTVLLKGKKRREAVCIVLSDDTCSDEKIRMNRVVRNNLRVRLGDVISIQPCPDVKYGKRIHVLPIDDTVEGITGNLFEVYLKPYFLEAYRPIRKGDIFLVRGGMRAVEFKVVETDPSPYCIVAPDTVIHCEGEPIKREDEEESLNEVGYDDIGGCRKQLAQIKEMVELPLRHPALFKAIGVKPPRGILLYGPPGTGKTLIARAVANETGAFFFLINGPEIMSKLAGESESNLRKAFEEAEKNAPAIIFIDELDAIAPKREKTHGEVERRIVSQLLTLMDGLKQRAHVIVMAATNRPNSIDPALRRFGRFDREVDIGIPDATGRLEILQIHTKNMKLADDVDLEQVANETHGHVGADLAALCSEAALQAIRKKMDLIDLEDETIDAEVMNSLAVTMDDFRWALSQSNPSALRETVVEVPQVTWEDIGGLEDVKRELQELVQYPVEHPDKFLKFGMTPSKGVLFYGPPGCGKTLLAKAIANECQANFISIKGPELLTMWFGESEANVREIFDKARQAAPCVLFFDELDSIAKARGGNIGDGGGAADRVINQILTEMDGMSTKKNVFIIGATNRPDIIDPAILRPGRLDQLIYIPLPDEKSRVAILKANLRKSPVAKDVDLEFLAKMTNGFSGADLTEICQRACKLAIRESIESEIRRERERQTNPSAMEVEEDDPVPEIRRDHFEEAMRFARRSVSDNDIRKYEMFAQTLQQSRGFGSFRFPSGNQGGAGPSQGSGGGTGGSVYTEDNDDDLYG

SMILES	IC50 [nM]
Cc1ccccc1-c1ccc(/N=N/c2cc(S(=O)(=O)O)c3ccccc3c2N)cn1 [Example 10, 4-amino-3-(6-o-tolylpyridine-3-ylazo)naphthalene-1-sulfonic acid sodium salt]	149
CCCCc1ccc(-c2ccc(/N=N/c3cc(S(=O)(=O)O)c4ccccc4c3N)cn2)cc1 [Example 62, 4-amino-3-[6-(4-butylphenyl)pyridine-3-ylazo]naphthalene-1-sulfonic acid sodium salt]	856
Nc1c(/N=N/c2ccc(-c3ccccc3)nc2)cc(S(=O)(=O)O)c2ccccc12 [Example 7, 4-amino-3-(6-phenylpyridine-3-ylazo)naphthalene-1-sulfonic acid sodium salt]	229
Nc1c(/N=N/c2ccc(-c3cccc4c3oc3ccccc34)nc2)cc(S(=O)(=O)O)c2ccccc12 [Example 39, 4-amino-3-(6-dibenzofuran-4-ylpyridine-3-ylazo)naphthalene-1-sulfonic acid sodium salt]	754
Nc1c(/N=N/c2ccc(-c3cccnc3)nc2)cc(S(=O)(=O)O)c2ccccc12 [Example 52, 4-amino-3-([2,3′]bipyridinyl-5-ylazo)naphthalene-1-sulfonic acid sodium salt]	1390
COCCOc1ccc(/N=N/c2cc(S(=O)(=O)O)c3ccccc3c2N)cn1 [Example 6, 4-amino-3-[6-(2-methoxyethoxy)pyridine-3-ylazo]naphthalene-1-sulfonic acid sodium salt]	518
Nc1c(/N=N/c2ccc(-c3c(OCCCNC(=O)c4cccnc4Cl)ccc4c3sc3ccccc34)nc2)cc(S(=O)(=O)O)c2ccccc12 [Example 81, 4-amino-3-[6-(3-{3-[(2-chloropyridine-3-carbonyl)amino]propoxy}dibenzothiophene-4-yl)pyridine-3-ylazo]naphthalene-1-sulfonic acid sodium salt]	207
N#Cc1cc(Cl)ccc1/N=N/c1cc(S(=O)(=O)O)c2ccccc2c1N [Example 118, 4-amino-3-(4-chloro-2-cyanophenylazo)naphthalene-1-sulfonic acid sodium salt]	105
Nc1c(/N=N/c2cccnc2-c2cccnc2)cc(S(=O)(=O)O)c2ccccc12 [Example 51, 4-amino-3-([2,3′]-bipyridinyl3-ylazo)naphthalene-1-sulfonic acid sodium salt]	3070
Nc1c(/N=N/c2ccc(-c3cncc4ccccc34)cc2)cc(S(=O)(=O)O)c2ccccc12 [Example 127, sodium salt]	295
Cc1cc(/N=N/c2cc(S(=O)(=O)O)c3ccccc3c2N)cnc1-c1ccccc1-c1ccccc1 [Example 86, 4-amino-3-(6-biphenyl-2-yl-5-methylpyridine-3-ylazo)naphthalene-1-sulfonic acid sodium salt]	552
COc1cccc(-c2ccc(/N=N/c3cc(S(=O)(=O)O)c4ccccc4c3N)cn2)c1 [Example 32, 4-amino-3-[6-(3-methoxyphenyl)pyridine-3-ylazo]naphthalene-1-sulfonic acid sodium salt]	428
Nc1c(/N=N/c2ccc(-c3cccc4cccnc34)nc2)cc(S(=O)(=O)O)c2ccccc12 [Example 83, 4-amino-3-(6-quinoline-8-ylpyridine-3-ylazo)naphthalene-1-sulfonic acid sodium salt]	350
Nc1c(/N=N/c2ccc3ncccc3c2)cc(S(=O)(=O)O)c2ccccc12 [Example 147, 4-amino-3-(quinoline-6-ylazo)naphthalene-1-sulfonic acid sodium salt]	502
CC(C)(C)OC(=O)NCCCOc1ccccc1-c1ccc(/N=N/c2cc(S(=O)(=O)O)c3ccccc3c2N)cn1 [Example 68, 4-amino-3-{6-[2-(3-tert-butoxycarbonylaminopropoxy)phenyl]pyridine-3-ylazo}naphthalene-1-sulfonic acid sodium salt]	201
CC(=O)c1ccccc1-c1ccc(/N=N/c2cc(S(=O)(=O)O)c3ccccc3c2N)cn1 [Example 14, 3-[6-(2-acetylphenyl)pyridine-3-ylazo]-4-aminonaphthalene-1-sulfonic acid sodium salt]	178
Nc1c(/N=N/c2ccc(-c3cccc4c3sc3ccccc34)nc2)cc(S(=O)(=O)O)c2ccccc12 [Example 43, 4-amino-3-(6-dibenzothiophene-4-ylpyridine-3-ylazo)naphthalene-1-sulfonic acid potassium salt]	1040
COC(=O)c1sccc1/N=N/c1cc(S(=O)(=O)O)c2ccccc2c1N [Example 146, methyl 3-(1-amino-4-sulfonaphthalene-2-ylazo)thiophene-2-carboxylate sodium salt]	1290
Nc1c(/N=N/c2ccc(-c3c(OCCCO)ccc4c3sc3ccccc34)nc2)cc(S(=O)(=O)O)c2ccccc12 [Example 82, 4-amino-3-{6-[3-(3-hydroxypropoxy)dibenzothiophene-4-yl]pyridine-3-ylazo}naphthalene-1-sulfonic acid sodium salt]	289
Cc1ccc(/N=N/c2cc(S(=O)(=O)O)c3ccccc3c2N)c([N+](=O)[O-])c1 [Example 120, 4-amino-3-(4-methyl-2-nitrophenylazo)naphthalene-1-sulfonic acid sodium salt]	162
COc1cc([N+](=O)[O-])ccc1/N=N/c1cc(S(=O)(=O)O)c2ccccc2c1N [Example 121, 4-amino-3-(2-methoxy-4-nitrophenylazo)naphthalene-1-sulfonic acid sodium salt]	2560
Nc1c(/N=N/c2cccc(F)c2)cc(S(=O)(=O)O)c2ccccc12 [Example 101, 4-amino-3-(3-fluorophenylazo)naphthalene-1-sulfonic acid sodium salt]	1760
COC(=O)CCC(=O)c1ccc(-c2ccc(/N=N/c3cc(S(=O)(=O)O)c4ccccc4c3N)cn2)cc1 [Example 40, methyl 4-{4-[5-(1-amino-4-sulfonaphthalene-2-ylazo)pyridine-2-yl]phenyl}-4-oxobutyrate sodium salt]	328
CSc1ccc(/N=N/c2cc(S(=O)(=O)O)c3ccccc3c2N)cc1 [Example 134, 4-amino-3-(4-methylsulfanylphenylazo)naphthalene-1-sulfonic acid sodium salt]	327
Cc1ccc(-c2ccc(Cl)cc2)c(-c2ccc(/N=N/c3cc(S(=O)(=O)O)c4ccccc4c3N)cn2)c1 [Example 72, 4-amino-3-[6-(4′-chloro-4-methylbiphenyl-2-yl)pyridine-3-ylazo]naphthalene-1-sulfonic acid sodium salt]	796
CC(C)Oc1ccccc1-c1ccc(/N=N/c2cc(S(=O)(=O)O)c3ccccc3c2N)cn1 [Example 27, 4-amino-3-[6-(2-isopropoxyphenyl)pyridine-3-ylazo]naphthalene-1-sulfonic acid sodium salt]	145
Nc1c(/N=N/c2ccc(-c3ccc(C(F)(F)F)cc3)nc2)cc(S(=O)(=O)O)c2ccccc12 [Example 21, 4-amino-3-[6-(4-trifluoromethylphenyl)pyridine-3-ylazo]naphthalene-1-sulfonic acid sodium salt]	445
CC(C)COc1ccccc1-c1ccc(/N=N/c2cc(S(=O)(=O)O)c3ccccc3c2N)cn1 [Example 67, 4-amino-3-[6-(2-isobutoxyphenyl)pyridine-3-ylazo]naphthalene-1-sulfonic acid sodium salt]	130
N#Cc1ccccc1/N=N/c1cc(S(=O)(=O)O)c2ccccc2c1N [Example 105, 4-amino-3-(2-cyanophenylazo)naphthalene-1-sulfonic acid sodium salt]	238
N#Cc1ccc(/N=N/c2cc(S(=O)(=O)O)c3ccccc3c2N)cc1 [Example 107, 4-amino-3-(4-cyanophenylazo)naphthalene-1-sulfonic acid sodium salt]	540

— patent US9573887B2, “Naphthalene derivative” (Daito Chemix Corporation, priority 2010, dated 2017)
